# Reference: ChEMBL document CHEMBL1125753, “Absolute structure-cytotoxic activity relationships of steganacin congeners and analogues” (1991)
# Experiments:
# KB = test: In vitro effective dose to inhibit KB cell growth from a human epidermoid carcinoma.; format: functional; conditions: for EC50: Homo sapiens, KB, read-out: ED50 (the source's name)
# Tetrahymena pyriformis = test: In vitro minimum inhibition concentration to inhibit the regeneration of cilia in Tetrahymena pyriformis W.; format: functional
# [1] = Tetrahymena pyriformis, read-out: MIC
Compound,EC50 (KB) [µg/mL],MIC (Tetrahymena pyriformis; [1]) [µg/mL],ED50 (KB) [µg/mL],further results
COc1cc2c(c(OC)c1OC)-c1cc3c(cc1[C@H](O)[C@H]1COC(=O)[C@H]1C2)OCO3,16,,,
COc1cc2c(c(OC)c1OC)-c1cc3c(cc1[C@@H](O)[C@H]1COC(=O)[C@@H]1C2)OCO3,5,,,
COc1cc2c(c(OC)c1OC)-c1cc3c(cc1[C@H](C#N)[C@H]1COC(=O)[C@@H]1C2)OCO3,1.52,,,
COc1cc2c(c(OC)c1OC)-c1cc3c(cc1[C@H](O[C@@H]1O[C@@H](CO)[C@@H](O)[C@H](O)[C@@H]1O)[C@H]1COC(=O)[C@@H]1C2)OCO3,> 100,,,
COc1cc2c(c(OC)c1OC)-c1cc3c(cc1[C@H](O[C@@H]1O[C@@H](COC(C)=O)[C@@H](OC(C)=O)[C@H](OC(C)=O)[C@@H]1OC(C)=O)[C@H]1COC(=O)[C@@H]1C2)OCO3,56,,,
COc1cc2c(c(OC)c1OC)-c1cc3c(cc1[C@H](O[C@@H]1O[C@H]4CO[C@@H](c5cccs5)O[C@H]4[C@H](O)[C@@H]1O)[C@H]1COC(=O)[C@@H]1C2)OCO3,> 100,,,
COc1cc2c(c(OC)c1OC)-c1cc3c(cc1[C@H](OC(=O)c1ccc(Br)cc1)[C@H]1COC(=O)[C@@H]1C2)OCO3,3.9,,,
COc1cc2c(c(OC)c1OC)-c1cc3c(cc1[C@H](O)[C@H]1COC(=O)[C@@H]1C2)OCO3,0.53,,,
COc1cc2c(c(OC)c1OC)-c1cc3c(cc1[C@H](OCCN(C)C)[C@H]1COC(=O)[C@@H]1C2)OCO3,1.5,,,
COc1cc2c(c(OC)c1OC)-c1cc3c(cc1C(=O)[C@H]1COC(=O)[C@@H]1C2)OCO3,6.2,,,
COc1cc2cc(c1Cl)N(C)C(=O)C[C@H](OC(=O)C(C)C)[C@]1(C)O[C@H]1[C@H](C)[C@@H]1C[C@@](O)(NC(=O)O1)[C@H](OC)/C=C/C=C(\C)C2,,< 0.5,,
COc1cc(C2c3cc4c(cc3CC3COC(=O)[C@@H]32)OCO4)cc(OC)c1OC (mixture of isomers),,,<0.3,
COc1cc2c(c(OC)c1OC)-c1cc3c(cc1C(OC(C)=O)[C@H]1COC(=O)[C@@H]1C2)OCO3 (mixture of isomers),15.7,> 20,,
COc1cc(C[C@H]2C(=O)OCC2Cc2ccc3c(c2)OCO3)cc(OC)c1OC (mixture of isomers),16.8,> 20,,
COc1cc2c(c(OC)c1OC)-c1cc3c(cc1[C@@H](OC(C)=O)C1COC(=O)[C@H]1C2)OCO3 (mixture of isomers) [STEGANACIN],< 0.3,> 20,,
COc1cc2c(c(OC)c1OC)-c1cc3c(cc1C[C@H](CO)[C@@H](CO)C2)OCO3 (racemic),75,,,
COc1cc2c(c(OC)c1OC)-c1cc3c(cc1C[C@H](COC(C)=O)[C@@H](COC(C)=O)C2)OCO3 (racemic),15,,,
COc1cc2c(c(OC)c1OC)-c1cc3c(cc1C[C@H]1COC(=O)[C@H]1C2)OCO3 (racemic) [PICROSTEGANE],,,28,
COc1cc2c(c(OC)c1OC)-c1cc3c(cc1C[C@H]1COC(=O)[C@@H]1C2)OCO3 (racemic) [STEGANE],,,0.94,
COc1cc2c(c(OC)c1OC)-c1cc3c(cc1CC1COC(=O)C1C2)OCO3 (racemic; form 1),,,1.13,
COc1cc2c(c(OC)c1OC)-c1cc3c(cc1CC1COC(=O)C1C2)OCO3 (racemic; form 2),,> 20,<0.3,

Compound,EC50 (KB) [µg/mL],MIC (Tetrahymena pyriformis; [1]) [µg/mL],ED50 (KB) [µg/mL],further results
COc1cc2c(c(OC)c1OC)-c1cc3c(cc1CC1COC(=O)C1C2)OCO3 (racemic; form 3),,,1.33,
COc1cc(C2c3cc4c(cc3CC3COC(=O)[C@@H]32)OCO4)cc(OC)c1OC (stereo in doubt),,> 20,1.75,
COc1cc2c(c(OC)c1OC)-c1cc3c(cc1C[C@@H]1COC(=O)[C@@H]1C2)OCO3 (stereo in doubt; (+)),,,4.1,MIC (Tetrahymena pyriformis): >20 µg/mL
COc1cc(C[C@@H]2C(=O)OC[C@H]2Cc2ccc3c(c2)OCO3)cc(OC)c1OC (stereo in doubt; (+)),5.2,,,MIC (Tetrahymena pyriformis): <20 µg/mL
COc1cc(CC2COCC2Cc2ccc3c(c2)OCO3)cc(OC)c1OC (stereo in doubt; (+)) [CISBURSERAN],,,,MIC (Tetrahymena pyriformis): 20 µg/mL
COc1cc2c(c(OC)c1OC)-c1cc3c(cc1C[C@H]1COC(=O)[C@H]1C2)OCO3 (stereo in doubt; (+)) [PICROSTEGANE],,> 20,32,
COc1cc2c(c(OC)c1OC)-c1cc3c(cc1C[C@@H]1COC(=O)[C@@H]1C2)OCO3 (stereo in doubt; (-)),,20,<0.3,
COc1cc(C[C@@H]2C(=O)OC[C@H]2Cc2ccc3c(c2)OCO3)cc(OC)c1OC (stereo in doubt; (-)),,> 20,,
COc1cc(CC2COCC2Cc2ccc3c(c2)OCO3)cc(OC)c1OC (stereo in doubt; (-)) [CISBURSERAN],,> 20,,
COc1cc2c(c(OC)c1OC)-c1cc3c(cc1C[C@H]1COC(=O)[C@H]1C2)OCO3 (stereo in doubt; (-)) [PICROSTEGANE],,,8.8,
COc1cc2c(c(OC)c1OC)-c1cc3c(cc1[C@@H](OC(C)=O)[C@H]1COC(=O)[C@@H]1C2)OCO3 (stereo in doubt; form 1),,,1.75,
COc1cc2c(c(OC)c1OC)-c1cc3c(cc1C[C@H]1COC(=O)[C@@H]1C2)OCO3 (stereo in doubt; form 1) [STEGANE],,,86,
COc1cc2c(c(OC)c1OC)-c1cc3c(cc1[C@@H](OC(C)=O)[C@H]1COC(=O)[C@@H]1C2)OCO3 (stereo in doubt; form 2),,> 20,61,
COc1cc2c(c(OC)c1OC)-c1cc3c(cc1C[C@H]1COC(=O)[C@@H]1C2)OCO3 (stereo in doubt; form 2) [STEGANE],,> 20,0.49,
COc1cc2c(c(OC)c1OC)-c1cc3c(cc1[C@@H](OC(C)=O)[C@H]1COC(=O)[C@@H]1C2)OCO3 (stereo in doubt; form 3),,,16.6,
COc1cc2c(c(OC)c1OC)-c1cc3c(cc1C[C@H]1COC(=O)[C@@H]1C2)OCO3 (stereo in doubt; form 3) [STEGANE],,,94,
COc1cc2c(c(OC)c1OC)-c1cc3c(cc1C[C@H]1COC(=O)[C@@H]1C2)OCO3 (stereo in doubt; form 4) [STEGANE],,,0.47,
COc1cc2c(c(OC)c1OC)-c1cc3c(cc1[C@H](OC(C)=O)[C@H]1COC(=O)[C@@H]1C2)OCO3 [(-)-STEGANACIN],< 0.3,> 20,,
COc1cc2c(c(OC)c1OC)-c1ccc(OC)c(=O)cc1[C@@H](NC(C)=O)CC2 [COLCHICINE],< 0.3,> 20,,
COc1cc([C@@H]2c3cc4c(cc3[C@H](O)[C@H]3COC(=O)[C@H]23)OCO4)cc(OC)c1OC [PODOFILOX],< 0.3,> 20,,
